Reference: US4237139A, “4-(3-(4-Quinolyl)propyl)piperidines, their preparation and their use as medicines” (Pharmindustrie, priority 1976, dated 1980)
Read-outs that look alike come from different tables or passages of the source.

Legend:
[1] = Acute toxicity (LD50) in mice; conditions: mouse, in vivo
Procedure: The acute toxicities and symptomatologies of the compounds according to the present invention have been determined on CD1 (Charles River) male mice by I.V. and oral methods. The LD50's were calculated, after 3 days of observation, by the cumulative method of J. J. Reed & H. Muench, Amer. J. Hyg., 27, 493, 1938, which is relied on herein and the disclosure incorporated by reference.

[2] = in vivo; conditions: rat, iv
[3] = system: ventricular arrhythmia caused by aconitine; assay: animal or person; conditions: Rattus norvegicus, iv, read-out: ED50 I.V., dose increasing by 50% the perfusion time of aconitine
[4] = system: uptake of serotonine by human blood platelets; assay: Inhibition of the uptake of serotonine by human blood platelets; assay type: cell-based; conditions: for IC50: Platelet, read-out: Inhibition of the Uptake of serotonine I50; for times less effective than its epimer as inhibitor of serotonine uptake: Example 7 vs Example 1, Example 9 vs Example 3
Description: It is known that the uptake of serotonine by the blood platelets is a good model or indication of the uptake of this amine by neurons [see J. TUOMISTO, J. Pharm., Pharmac., 26 92 (1974)]. When it is applied to the investigation of medicaments, a method which brings into play the blood platelets presents great interest because it makes it possible to use human cells, which enables the method to give a good anticipation of the effect of the products on human beings.
(§1) The capacity of the products for inhibiting the uptake of serotonine or for causing its release has been shown on human blood platelets according to J. L. DAVID et al. "Platelets Function and Thrombosis, a Review of Methods" p. 335 (Plenum Press, London, 1972).
(a) Inhibition of the uptake of serotonine
The results are expressed by a 50% inhibiting dose I50, which represents the product dose in micromoles per liter reducing the uptake of serotonine by 50%.

[5] = system: vasoconstriction of the nasal mucous membrane; assay: Vascular action: potentiation of the vascular effects of serotonine in anaesthetized dog; assay type: in vivo
Procedure: The potentiation of the vascular effects of serotonine is shown according to the procedure of J. J. Loux, Arch. […] The modified method consists in injecting into the carotid of an anaesthetized dog increasing and cumulated doses of serotonine. […] This increase was measured by connecting the nasal sinus, hermetically isolated from outside, with a pressure gauge.

[6] = system: 5-HTP-induced quivering; assay: Potentiation test of 5-hydroxytryptophan (5-HTP), quivering in mice; assay type: in vivo, CD1 (Charles River) male mice; conditions: for ED50: Mus musculus, sc, read-out: ED 50, dose giving an average indication of quivering equal to 1; for inherent effect (in the absence of 5-HTP): dose of 25 mg/kg, control product groups
Description: (2) Potentialing Effect of 5-HTP:
It is known that the administration of 5-HTP parenterally in mice causes, with large doses, a characteristic behavior, i.e. quivering, torsions of the trunk, displacement of the rear legs, shaking of the head and increased general motility. To show a potentiating power with respect to 5-HTP, the present inventors have therefore used to advantage one of the characteristic properties of the precursor of serotonine, i.e. quivering. The procedure used is inspired by that of C. […] Groups of 8 male mice were used. The chronological order of the test was as follows for the groups treated with both 5-HTP and the products according to the invention.
At time t=30 min., the product to the tested was injected subcutaneously (S.C.) in the form of a 9% aqueous solution of NaCl.
At time t=75 min., the quivering in each animal was measured using the following scale:
1=quivering of average intensity
The chronological order was the same for the "control 5-HTP" and "control product" groups except that, in the first case, a 9% aqueous solution of NaCl was injected in the S.C. manner instead of the product solution and, in the second case, a 9% aqueous solution of NaCl was injected in the I.P. manner instead of the 5-HTP solution. The "control product" groups received the same doses of the tested product as the groups treated with both 5-HTP and the product in order to discover any possible effect inherent in the product.
The number of points for each group was totalled and the average indication of quivering was determined.

[7] = system: ventricular arrhythmia caused by aconitine; conditions: aconitine test, rats
[8] = system: sleep induced by serotonine; assay: Potentiation of sleep induced by serotonine in chickens; assay type: in vivo, chicken
Procedure: The role of the cerebral serotonine in sleep is a well-known fact as reported by M. Jouvet and Coll., C. R. Acad. Sc.
Groups of 12 chickens were used, to which were administered intravenously serotonine at a dosage level of 0.1 mg/kg.

[9] = system: release of serotonine by human blood platelets; assay: Release of serotonine from human blood platelets; assay type: cell-based; conditions: for activation at 5 µM / activation at 50 µM: Homo sapiens, Platelet, read-out: Percentage of increase of the release of serotonine; for release of serotonine compared with p-chloro amphetamine, in words / release of serotonine, in words: human blood platelets
Description: as §1
(b) Release of serotonine
The action of the products on the release of serotonine has been tested at two concentrations: 5×10^-6 mole per liter and 5×10^-5mole per liter.
The results obtained are expressed by a percentage of increase of the release of serotonine in comparison with the results obtained with the controls.

[10] = system: uptake of serotonine by synaptosomes of the rat's brain; assay: Inhibition of the uptake of serotonine by synaptosomes of the rat's brain; assay type: biochemical; conditions: in vitro, read-out: 50% inhibiting dose I50, uptake of serotonine by synaptosomes
[11] = molecular target: benzodiazepine receptors in rat brain membranes; assay: Inhibition of specific ^3 H-diazepam binding to rat brain membranes; conditions: for Ki: read-out: Ki, Inhibition of Specific ^3 H-Diazepam Binding To Rat Brain Membranes, rat brain membranes, ^3 H-diazepam
[12] = iv, I.V., Table 4 (toxicity; species not given), read-out: LD50 I.V.
[13] = po, Table 6, P.O., mice, 3 days of observation, read-out: LD50 P.O.
[14] = 5 × 10^-5 mole per liter, in comparison with controls
[15] = 5 × 10^-6 mole per liter, in comparison with controls

SMILES	LD50 at 72 h [1, 12]	selectivity ratio [2]	ED50 [3]	IC50 ([4]; Homo sapiens)	LD50 at 72 h [1, 13]	activation at 5 µM [9]	activation at 50 µM [9]	Ki [11]	further results
CC(C)N(CCC(C(N)=O)(c1ccccc1)c1ccccn1)C(C)C (stereo not drawn) [Disopyramide, reference compound]	26 mg/kg	6.5	4 mg/kg	–	–	–	–	–	–
C=C[C@H]1CNCC[C@H]1CCCc1ccnc2ccc(OC)cc12 [Example 1, 4(R)-[3-(6-methoxy 4-quinolyl)propyl] 3(R)-vinyl piperidine]	30 mg/kg	–	2 mg/kg	0.01 µM	600 mg/kg	7%	32%	–	potentiation of vascular effect of serotonine (pressure decrease measured by the gauge) ([5]; 1 μg/kg I.V., 0.05 μg/kg of serotonine): twice greater; ED50 [6]: 14 mg/kg; inherent effect (in the absence of 5-HTP) [6]: did not have any inherent effect; antiarythmic effectiveness compared with quinidine and disopyramide, in words [7]: more effective than the reference products (quinidine and disopyramide); chickens sent to sleep ([8]; product of Example 1 at 3 mg/kg I.V. + serotonine 0.1 mg/kg I.V.): 60%
C=C[C@H]1CNCC[C@H]1CCCc1ccnc2ccccc12 [Example 2, 4(R)-[3-(4-quinolyl)propyl] 3(R)-vinyl piperidine]	30 mg/kg	2.5	12 mg/kg	–	525 mg/kg	–	–	2.5 µM	IC50 [10]: 0.035 µM; ED50 ([6]; product S.C., 5-HTP 150 mg/kg I.P., male mice): 12 mg/kg; inherent effect (in the absence of 5-HTP) [6]: did not have any inherent effect
CC[C@H]1CNCC[C@H]1CCCc1ccnc2ccc(OC)cc12 [Example 3, 4(R)-[3-(6-methoxy 4-quinolyl)propyl] 3(R)-ethyl piperidine]	21 mg/kg	30	0.7 mg/kg	–	600 mg/kg	–	–	4.5 µM	IC50 ([4]; human blood platelets): 0.01 µM; IC50 [10]: 0.008 µM; antiarythmic effectiveness compared with quinidine and disopyramide, in words [7]: more effective than the reference products (quinidine and disopyramide); activation at 50 µM [9, 14]: 67%; activation at 5 µM [9, 15]: 34%; release of serotonine compared with p-chloro amphetamine, in words [9]: even more effective than p-chloro amphetamine; release of serotonine, in words [9]: powerful agents for the release of serotonine
c1ccc2c(CCCC3CCNCC3)ccnc2c1 [Example 4, 4-[3-(4-quinolyl)propyl]piperidine]	42 mg/kg	2.8	15 mg/kg	–	600 mg/kg	–	–	3.5 µM	–
CC[C@H]1CNCC[C@H]1CCCc1ccnc2ccccc12 [Example 5, 4(R)-[3-(4-quinolyl)propyl] 3(R)-ethyl piperidine]	22 mg/kg	9.6	2.3 mg/kg	–	600 mg/kg	–	–	8 µM	antiarythmic effectiveness compared with quinidine and disopyramide, in words [7]: more effective than the reference products (quinidine and disopyramide)
C=C[C@@H]1CNCC[C@H]1CCCc1ccnc2ccc(OC)cc12 [Example 7, 4(R)-[3-(6-methoxy 4-quinolyl)propyl]3(S)-vinyl piperidine]	–	–	–	1 µM	225 mg/kg	40%	78%	–	times less effective than its epimer as inhibitor of serotonine uptake ([4]; human blood platelets): 100 times; release of serotonine compared with p-chloro amphetamine, in words [9]: even more effective than p-chloro amphetamine; release of serotonine, in words [9]: powerful agents for the release of serotonine
CC[C@@H]1CNCC[C@H]1CCCc1ccnc2ccc(OC)cc12 [Example 9, 4(R)-[3-(6-methoxy 4-quinolyl)propyl]3(S)-ethyl piperidine]	–	–	–	–	200 mg/kg	–	–	5 µM	IC50 ([4]; human blood platelets): 0.1 µM; times less effective than its epimer as inhibitor of serotonine uptake ([4]; human blood platelets): ≥ 10 times; activation at 50 µM [9, 14]: 69%; activation at 5 µM [9, 15]: 30%; release of serotonine compared with p-chloro amphetamine, in words [9]: even more effective than p-chloro amphetamine; release of serotonine, in words [9]: powerful agents for the release of serotonine
CN(C)CCCN1c2ccccc2CCc2ccccc21 [Imipramine, reference compound]	–	–	–	0.4 µM	–	3%	13%	–	Ki, Inhibition of Specific ^3 H-Diazepam Binding To Rat Brain Membranes [11]: inactive
C=C[C@H]1C[N@@]2CC[C@H]1C[C@@H]2[C@@H](O)c1ccnc2ccc(OC)cc12 [Quinidine, reference compound]	70 mg/kg	9.3	7.5 mg/kg	–	–	–	–	–	–
CC(N)Cc1ccc(Cl)cc1 (stereo not drawn) [p-Chloro amphetamine, p-chloro amphetamine, reference compound]	–	–	–	12 µM	–	6%	51%	–	–
NCCc1c[nH]c2ccc(O)cc12 [serotonine, reference compound]	–	–	–	–	–	–	–	–	minimal effective dose ([5]; Canis lupus familiaris, serotonine into the carotid, increasing and cumulated doses, read-out: dose from which an increase of the total volume of sinus was observed): ≥ 0.0002 mg/kg; chickens sent to sleep ([8]; serotonine 0.1 mg/kg I.V. alone): 25%
